Experimental findings from US11655246B2, “Aminothiazole compounds as inhibitors of CTPS1” (STEP PHARMA S.A.S., priority 2017, dated 2023) are described below.

Where a name gives a salt, the structure may show the parent alone.

One assay addresses T1, human CTPS1 (Homo sapiens, UniProt P17812).
T1 construct: purchased Proteros biostructures GmbH
T1 sequence (P17812 1-591): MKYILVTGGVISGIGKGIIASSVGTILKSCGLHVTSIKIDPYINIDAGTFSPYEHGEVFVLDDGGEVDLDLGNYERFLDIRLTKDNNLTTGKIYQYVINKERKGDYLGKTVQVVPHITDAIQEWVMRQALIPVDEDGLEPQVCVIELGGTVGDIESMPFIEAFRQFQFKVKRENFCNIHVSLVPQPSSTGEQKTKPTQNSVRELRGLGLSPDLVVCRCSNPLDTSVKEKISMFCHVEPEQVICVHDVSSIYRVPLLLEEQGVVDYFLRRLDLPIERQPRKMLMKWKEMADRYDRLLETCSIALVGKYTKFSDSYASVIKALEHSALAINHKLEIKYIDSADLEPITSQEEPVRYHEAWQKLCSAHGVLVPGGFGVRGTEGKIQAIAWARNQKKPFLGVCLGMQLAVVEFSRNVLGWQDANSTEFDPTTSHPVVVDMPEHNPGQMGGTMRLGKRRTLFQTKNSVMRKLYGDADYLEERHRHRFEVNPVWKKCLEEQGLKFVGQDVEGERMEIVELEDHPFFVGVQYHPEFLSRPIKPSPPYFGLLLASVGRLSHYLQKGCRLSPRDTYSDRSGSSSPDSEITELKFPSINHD
The assay is described as follows: Human CTPS1 enzyme inhibition (ADP-Glo Max assay). The note with it: Table 17, 25° C., read-out: CTPS1 (Human CTPS1 Enzyme Inhibition data grouped by potency range). It is filed as biochemical. Here is the method:
The enzyme inhibitory activities of compounds invented against the target of interest were determined using the ADP-Glo™ Max assay (Promega, UK). Assays for human CTPS1 were performed in 1× assay buffer containing 50 mM Tris, 10 mM MgCl2, 0.01% Tween-20, pH to 8.0 accordingly. Finally, immediately before use, L-cysteine was added to the 1× assay buffer to a final concentration of 2 mM. All reagents are from Sigma-Aldrich unless specified otherwise.
3× human CTPS1 protein was prepared in 1× assay buffer to the final working protein concentration required for the reaction. A 2 uL volume per well of 3× human CTPS1 protein was mixed with 2 uL per well of 3× test compound (compound prepared in 1× assay buffer to an appropriate final 3× compound concentration respective to the concentration response curve designed for the compounds under test) for 10 minutes at 25° C. […] ADP-Glo™ Max reagent was added for 60 minutes (6 uL per well) and subsequently ADP-Glo™ Max development reagent was added for 60 minutes (12 uL per well) prior to signal detection in a microplate reader (EnVision® Multilabel Reader, Perkin Elmer). Following each reagent addition over the course of the assay, assay plates were pulse centrifuged for 30 seconds at 500 rpm.
In all cases, the enzyme converts ATP to ADP and the ADP-Glo™ Max reagent subsequently depletes any remaining endogenous ATP in the reaction system. The ADP-Glo™ Max detection reagent converts the ADP that has been enzymatically produced back into ATP and using ATP as a substrate together with luciferin for the enzyme luciferase, light is generated which produces a detectable luminescence. […] The percentage inhibition produced by each concentration of compound was calculated using the equation shown below: […]
With `CCC(C(=O)Nc1ccc(-c2cccnc2)cc1)c1csc(NS(=O)(=O)C2CC2)n1` (racemic) [T5, 2-(2-(cyclopropanesulfonamido)thiazol-4-yl)-N-(4-(pyridin-3-yl)phenyl)butanamide], the IC50 was below 100 nM.

For `CCC(C(=O)Nc1ccc(-c2cncc(Cl)c2)cc1)c1csc(NS(=O)(=O)C2CC2)n1` (racemic) [T8, N-(4-(5-chloropyridin-3-yl)phenyl)-2-(2-(cyclopropanesulfonamido)thiazol-4-yl)butanamide], the IC50 was below 100 nM.

`CC(C)C(C(=O)Nc1ccc(-c2cccnc2)cc1)c1csc(NS(=O)(=O)C2CC2)n1` (racemic) [T12, 2-(2-(cyclopropanesulfonamido)thiazol-4-yl)-3-methyl-N-(4-(pyridin-3-yl)phenyl)butanamide]: the IC50 lay within 100 to 1000 nM.

Consider `CCC(C(=O)Nc1ccc(-c2cccnc2)cc1)c1csc(NS(=O)(=O)C2CC2)n1` (single isomer, unassigned) [T6, 2-(2-(cyclopropanesulfonamido)thiazol-4-yl)-N-(4-(pyridin-3-yl)phenyl)butanamide.HCl], for which the IC50 was 100 to 1000 nM.

In the case of `CCC(C(=O)Nc1ccc(-c2cccnc2)cc1)c1csc(NS(=O)(=O)C2CC2)n1` (single isomer, unassigned) [T7, 2-(2-(cyclopropanesulfonamido)thiazol-4-yl)-N-(4-(pyridin-3-yl)phenyl)butanamide.HCl], the IC50 was below 100 nM.

For `CCC(C(=O)Nc1ccc(-c2cncc(Cl)c2)cc1)c1csc(NS(=O)(=O)C2CC2)n1` (single isomer, unassigned) [T9, N-(4-(5-chloropyridin-3-yl)phenyl)-2-(2-(cyclopropanesulfonamido)thiazol-4-yl)butanamide.HCl], the IC50 was below 100 nM.

Take `CCC(C(=O)Nc1ccc(-c2cncc(Cl)c2)cc1)c1csc(NS(=O)(=O)C2CC2)n1` (single isomer, unassigned) [T10, N-(4-(5-chloropyridin-3-yl)phenyl)-2-(2-(cyclopropanesulfonamido)thiazol-4-yl)butanamide.HCl]: the IC50 was below 100 nM.

Turning to `CC(C)C(C(=O)Nc1ccc(-c2cccnc2)cc1)c1csc(NS(=O)(=O)C2CC2)n1` (single isomer, unassigned) [T13, 2-(2-(cyclopropanesulfonamido)thiazol-4-yl)-3-methyl-N-(4-(pyridin-3-yl)phenyl)butanamide.HCl], the IC50 was in the range of 100 to 1000 nM.

`CC(C)C(C(=O)Nc1ccc(-c2cccnc2)cc1)c1csc(NS(=O)(=O)C2CC2)n1` (single isomer, unassigned) [T14, 2-(2-(cyclopropanesulfonamido)thiazol-4-yl)-3-methyl-N-(4-(pyridin-3-yl)phenyl)butanamide.HCl]: the IC50 was in the range of 100 to 1000 nM.

Turning to `CCC(C(=O)Nc1ccc(-c2cncc(F)c2)cc1)c1csc(NS(=O)(=O)C2CC2)n1` (single isomer, unassigned) [T72], the IC50 is below 100 nM.

With `CCC(C(=O)Nc1ccc(-c2cncc(C(F)(F)F)n2)cc1)c1csc(NS(=O)(=O)C2CC2)n1` (single isomer, unassigned) [T106], the IC50 is below 100 nM.

With `COc1cncc(-c2ccc(NC(=O)C(OC)c3csc(NS(=O)(=O)C4CC4)n3)cc2)n1` (single isomer, unassigned) [T107], the IC50 is below 100 nM.

Consider `CCOc1cncc(-c2ccc(NC(=O)C(CC)c3csc(NS(=O)(=O)C4CC4)n3)cc2)n1` (single isomer, unassigned) [T204], for which the IC50 is below 100 nM.

In the case of `CCC(C(=O)Nc1ccc(-c2cncc(OCC(F)(F)F)n2)cc1)c1csc(NS(=O)(=O)C2CC2)n1` (single isomer, unassigned) [T222], the IC50 lay in the range of 100 to 1000 nM.

`CCC(C(=O)Nc1ccc(-c2cncc(OCC(F)(F)F)n2)cc1)c1csc(NS(=O)(=O)C2CC2)n1` (single isomer, unassigned) [T223]: the IC50 was below 100 nM.

Staying with this assay, now noted: Table 18, additional potency data, 25° C., read-out: CTPS1 (Human CTPS1 Enzyme Inhibition data grouped by potency range).
As to `CCOc1cncc(-c2ccc(NC(=O)C(OC)c3csc(NS(=O)(=O)C4CC4)n3)cc2)n1` (racemic) [T410, 2-(2-(cyclopropanesulfonamido)thiazol-4-yl)-N-(4-(6-ethoxypyrazin-2-yl)phenyl)-2-methoxyacetamide], the IC50 is below 100 nM.
